These results are taken from US12521423B2, “Method and composition for treating gastrointestinal inflammatory disorders” (THE REGENTS OF THE UNIVERSITY OF COLORADO, a body corporate, priority 2019, dated 2026).

Read-outs that look alike come from different tables or passages of the source. Where only a bound is given, the exact number is not on record here.

Data set [1] has as its system T84 cells. The experiment in a line: HPLC adenylate and energy metabolite analyses of treated T84 cells. The format is cell-based.
The test system of data set [2] is T84 cells. Description: calcium switch assay / transepithelial resistance of T84 monolayers. The format is cell-based. How it is done: This model utilizes transient divalent cation chelation to disrupt epithelial tight junctions in fully confluent cells.
Briefly, polarized, high-resistant (>1,500 Ω·cm2) T84 monolayers on 0.33 cm^2 (non-metabolomic) or 5 cm^2 (metabolomics) transwell inserts (Costar, 0.4 μm) were equilibrated for 1 h in HBSS in the case of non-metabolomic analyses and approx. 20 h in the case of metabolomic analyses. All experiments were performed at 37° C. and transepithelial resistance monitored using a voltohmeter (World Precision Instruments EVOM). Extracellular Ca^2+ was chelated via washing and incubation with Ca^2+-free HBSS supplemented with 2 mM EDTA for 5 min, after which the samples were washed into HBSS with normal calcium (1.8 mM).
To our surprise, this analysis identified an inverse correlation between Hpx and barrier, with Hpx spiking from approx. 1 to 3.5 μM (p<0.004) at the barrier nadir. […] To extend this observation, T84 cells were supplemented with Hpx (range 0.1-1 mM, 20 h) and a calcium switch assay performed.
Allopurinol (Allo) is a structural analog of hypoxanthine commonly used to treat gout. The drug is metabolized into oxipurinol by xanthine oxidase (XO), which in turn inhibits XO and decreases uric acid. Allopurinol was employed as a competitive substrate/inhibitor for hypoxanthine-guanine phosphoribosyl transferase (HGPRT) to assess the contribution of Hpx salvage to the barrier formation process using the calcium switch assay and transepithelial resistance measurements described above.

For data set [3], the system named is T84 cells. The settings on record: 1 mM Hpx. How it is done:
To examine the impact of Hpx supplementation on epithelial function during physiologically-relevant metabolic stress, T84 cells were exposed to hypoxia (1% O2, 40 h) in the presence and absence of 1 mM Hpx, and barrier and adenylate metabolites monitored.

For data set [4], the system named is colonic adenylate and energy metabolism. The settings on record: Hpx 1 mM enema 5 and 18 h before sacrifice. How it is done:
To assess the influence of purine supplementation on colonic adenylate and energy metabolism, MDP was depleted by treating mice with streptomycin, and reconstituted by administration of Hpx (1 mM) by enema at time points of 5 and 18 h before sacrifice and distal colon tissue metabolite extracts analyzed.

For data set [5] the following is noted: 10 mM Hpx in drinking water. How it is done: (§1) To validate the role of exogenous purine supply on colonic function, streptomycin-treated mice (S-0 mM HPX-DSS) were supplemented with 1 and 5 mM Hpx (S-1 mM HPX-DSS and S-5 mM HPX-DSS) in their drinking water and submitted to DSS colitis.
The next data set relates to DSS colitis. The settings on record: for body weight lost: no Hpx ~9; for sterility index: from 0; for tissue AEC: from 0.30; for BiP: from 0.41; for sterile inner mucin layer: from ~1; for colon length: no Hpx ~5.75. How it is done:
as §1

The test system of data set [6] is T84 cells. The following applies: 1 mM hypoxanthine, 88 h, p<0.001.
Protocol: We also employed a scratch wound assay to assess the influence of Hpx supplementation on cellular restitution. T84 cells were plated at 35,000 cells per well on a 96-well ImageLock tissue culture plate (Essen Bioscience Inc.) and incubated in standard conditions until a confluent cell monolayer formed (˜24 h). Precise and reproducible wounds were made in all wells with a WoundMaker (Essen Bioscience Inc.). […] Initial images were taken immediately after wounding at 10× using the IncuCyte live-cell imaging (Essen Bioscience Inc.), and then every 2 h over the course of 88 h in culture. Relative wound closure (%) was quantified for every image using the relative wound density metric, a measure of cell density in the wound area relative to the cell density outside of the wound area.
A further data set concerns murine microbiota. The experiment in a line: HPLC analyses of murine fecal extracts after streptomycin treatment. The format is in vivo, mice. From the text: Analyses of soluble, extracellular murine fecal metabolite extracts by HPLC identified substantial levels of available purine (˜550 nmol/g), primarily as hypoxanthine (Hpx, ˜350 nmol/g). The production of purines by the microbiota was verified by fecal extract analyses of streptomycin-treated mice, which decreased the available fecal purine more than 80%, lowering available Hpx to <50 nmol/g.

Data set [7] concerns total colonic purine levels. Description: colon tissue metabolites at baseline in CR mice, streptomycin treatment and K12 colonization. The format is in vivo. The settings on record: no DSS.
Description: (§2) Bacterial supply of purine was depleted in CR mice (CR-CNTL) via streptomycin treatment (S-CR-CNTL), and reconstituted by colonization with streptomycin-resistant K12 (S-CR-K12).
For the next data set, the system named is DSS-induced colitis. Description: DSS colitis in CR mice, streptomycin treatment and K12 colonization. The settings on record: colon tissue.
Setting [8] is: subconfluent T84 cells, Allo 20 h.

Description for DSS-induced colitis: as §2
Visualization of the colon tissues by hematoxylin and eosin (H&E) staining in the CR mouse groups reveal two key differences between tissue with and without MDP supply. […] These phenotypes correlate with the adenylate energy charge (AEC, (ATP+0.5×ADP)/(ATP+ADP+AMP))—a commonly used index used to indicate cellular energy status that is defined by relative adenine nucleotide levels, providing a more functionally relevant indicator of energy balance than ATP and/or PCr alone.
Given the association between the AEC and cellular function and the metabolic data indicative of MDP promoting flux through ATP, the colon tissue analyses were extended to Ki67 as marker of proliferation.
Due to the importance of ATP supply for ER function, the colon tissue immunofluorescent analyses were extended to BiP as a marker of ER stress and the UPR.
Goblet cells require robust ER function for mucin protein folding and dimerization, prompting analyses of the impact of MDP on colonic mucin production and secretion. To observe mucin production tissue sections were stained with alcian blue. […]

In the case of `Nc1ncnc2c1ncn2[C@@H]1O[C@H](COP(=O)(O)OP(=O)(O)O)[C@@H](O)[C@H]1O` [ADP, adenosine diphosphate], the “Hpx increase in T84 IECs” value in the data set with T84 cells [1] (100 μM ADP) is reported as about 15 fold.
Turning to `Oc1ncnc2[nH]ncc12` [Allo, Allopurinol], the “T84 cell barrier formation” value in the data set with T84 cells [2] (Allo 1 mM, p<0.001) is “significantly attenuated”. Besides, in the data set with T84 cells [1] (setting [8]), the “Adenine, IMP, and UA levels” value is “undetectable to trace levels”; the TAE result is reported as “corresponding increase”; the “Xan and Ino levels” value is reported as “small increases”. For the same compound, the PCr level with T84 cells [1] (subconfluent T84 cells, Allo 20 h, from approx. 20) was about 27 µM. Moreover, in the data set with T84 cells [1] (subconfluent T84 cells, Allo 20 h, from approx. 400), the Hpx level is reported as about 250 nM. In the data set on T84 cells [1] (subconfluent T84 cells, Allo 20 h, from trace/undetectable), the Ado level entry was “approx. 400 nM”.
As for `O=c1[nH]cnc2nc[nH]c12` [Hpx, hypoxanthine], in the data set with T84 cells [2] (300 μM and 1 mM Hpx, p<0.03), the “barrier throughout the course of the experiment” value is reported as “improved barrier”. The “cellular barrier and barrier reformation (calcium switch)” value with T84 cells [2] (Hpx pre-loading 0.1-1 mM, 20 h) was “protective of cellular barrier and promoted barrier reformation in a dose-responsive manner”. Also, the “increase of intracellular Hpx levels” value in the data set with T84 cells [1] (T84 cells, Hpx 0.1-1 mM, 20 h pre-exposure) is “up to 100 fold”. The “total available energy (TAE) under hypoxia” value in the data set with T84 cells [3] (hypoxia 1% O2) was “significant recovery”. In addition, the “increase of overall barrier resistance above control conditions” value with T84 cells [3] (hypoxia 1% O2, 40 h) is “approx. 1.3 fold”. For the same compound, the “colonic AMP” value in [4] (from 58) is reported as 84 nmol/g. Moreover, the “colonic ADP” value in data set [4] (from 80) is 123 nmol/g. Besides, the “colonic ATP” value in [4] (from 192) is on record as 154 nmol/g. The total colonic purine in [4] (from 490) amounted to 560 nmol/g. In addition, in data set [4] (from 3700), the “colonic phosphocreatine (PCr)” value came out at 2000 nmol/g. Also, in data set [5], the urination entry is listed as “excessively urinate”. This compound also returned a body weight lost in the data set with DSS colitis (1 mM Hpx in drinking water) of about 3%. In the data set on DSS colitis (1 mM Hpx), the sterility index came out at 0.56, the “tissue AEC” value stood at 0.38, the BiP is 0.23 BiP/DAPI and the “sterile inner mucin layer” value is reported as about 9 μm. Moreover, the colon length with DSS colitis (1 mM Hpx) is about 6.3 cm. This compound also displayed a tissue proliferation with DSS colitis (1 mM Hpx, from 0.22) of 0.54 Ki67/DAPI. Moreover, the body weight lost in the data set with DSS colitis (5 mM Hpx in drinking water) is listed as about 7%. Besides, the tissue proliferation with DSS colitis (5 mM Hpx, control 0.22) came out at 0.19 Ki67/DAPI. Moreover, in the data set with DSS colitis (5 mM Hpx), the sterility index was 0.78, the “tissue AEC” value was found to be 0.42, the BiP amounted to 0.24 BiP/DAPI and the “sterile inner mucin layer” value was about 11 μm. The compound also registered a colon length with DSS colitis (5 mM Hpx) of about 6.5 cm. In the data set with DSS colitis (Hpx supplementation), the “epithelial cell population and mucin production (H&E)” value was “recovered”; the “goblet cell mucin production, thecal volumes” value is “increased thecal volumes”. The “increase of epithelial wound closure rate following scratching” value in the data set on T84 cells [6] is “approx. 1.5 fold”.
Consider `Nc1ncnc2c1ncn2[C@@H]1O[C@H](CO)[C@@H](O)[C@H]1O` [adenosine], for which the “Hpx increase in T84 IECs” value in the data set on T84 cells [1] (1 mM adenosine) is given as “over 150 fold”.
Turning to `[H]/N=C(/N)N[C@H]1[C@H](O)[C@@H](O)[C@H](O[C@@H]2O[C@@H](C)[C@](O)(C=O)[C@H]2O[C@@H]2O[C@@H](CO)[C@H](O)[C@@H](O)[C@@H]2NC)[C@@H](N/C(N)=N\[H])[C@@H]1O` [streptomycin], in the data set with murine microbiota (1 day after streptomycin treatment), the measurable fecal hypoxanthine entry is “nearly complete loss”. In the data set with murine microbiota (streptomycin-treated mice), the “available fecal Hpx” value is under 50 nmol/g and the “decrease of available fecal purine” value is listed as “more than 80%”. Besides, in [7] (CR-CNTL 207), the “colon tissue Xan” value amounted to 69 nmol/g. In [7] (CR-CNTL 809), the “total colonic purine levels” value was 630 nmol/g. Also, the “goblet cell thecal volumes (alcian blue)” value with DSS-induced colitis is “broad decline”. The “adenylate energy charge (AEC)” value in the data set with DSS-induced colitis (CR-CNTL-DSS 0.51) is given as 0.44.
